The structures appear in SMILES notation. Where a name gives a salt, the structure may show the parent alone.

In this assay the target is T1, sc-urokinase (Homo sapiens, UniProt P00749).
T1 construct: purchased Ribosepharm GmbH, Haan, Germany
The experiment in a line: Inhibition of urokinase (chromogenic substrate, Dixon Ki). The settings on record: Tris buffer pH 8.0, 25° C., substrate Pefachrome UK or Bz-βAla-Gly-Arg-pNA; mean of at least 3 determinations. The assay is classed as biochemical. The procedure:
The Ki values were determined according to Dixon by linear regression using a computer program.
On to `CCOC(=O)N1CCN(C(=O)C(Cc2cccc(C(=N)N)c2)NS(=O)(=O)c2c(C(C)C)cc(C(C)C)cc2C(C)C)CC1` (centres unmarked), for which the Ki is 540 nM.
The same measure for `CCOC(=O)C1CCN(C(=O)C(Cc2cccc(C(=N)N)c2)NS(=O)(=O)c2c(C(C)C)cc(C(C)C)cc2C(C)C)CC1` (centres unmarked): 720 nM; for `CC(C)OC(=O)N1CCN(C(=O)C(Cc2cccc(C(=N)N)c2)NS(=O)(=O)c2c(C(C)C)cc(C(C)C)cc2C(C)C)CC1` (centres unmarked): 790 nM; for `CC(C)c1cc(C(C)C)c(S(=O)(=O)NC(Cc2cccc(C(=N)N)c2)C(=O)N2CCCC(C(=O)OCc3ccccc3)C2)c(C(C)C)c1` (centres unmarked): 1200 nM.
Compound `CC(C)c1cc(C(C)C)c(S(=O)(=O)NC(Cc2cccc(C(=N)N)c2)C(=O)N2CCCC(C(=O)NCc3ccccc3)C2)c(C(C)C)c1` (centres unmarked) registered a Ki of 1500 nM. The Ki values of the last two compounds are within 1.5-fold of each other.
As for `CC(C)c1cc(C(C)C)c(S(=O)(=O)NC(Cc2cccc(C(=N)N)c2)C(=O)N2CCN(C(=O)OCc3ccccc3)CC2)c(C(C)C)c1` (centres unmarked), the figure is 1900 nM; as for `CC1CCN(C(=O)C(Cc2cccc(C(=N)N)c2)NS(=O)(=O)c2c(C(C)C)cc(C(C)C)cc2C(C)C)CC1` (centres unmarked), 2200 nM; as for `CC(C)c1cc(C(C)C)c(S(=O)(=O)NC(Cc2cccc(C(=N)N)c2)C(=O)N2CCN(C(=O)N(C)C)CC2)c(C(C)C)c1` (centres unmarked), 2700 nM.
Take `CCOC(=O)C1CCN(C(=O)[C@H](Cc2cccc(C(=N)N)c2)NS(=O)(=O)c2ccc3ccccc3c2)CC1`: the affinity corresponds to a Ki of 3300 nM.
In the case of `CC(=O)N1CCN(C(=O)C(Cc2cccc(C(=N)N)c2)NS(=O)(=O)c2c(C(C)C)cc(C(C)C)cc2C(C)C)CC1` (centres unmarked), the inhibition constant Ki was determined as 3500 nM.
As for `N=C(N)c1cccc(C[C@H](NS(=O)(=O)c2ccc3ccccc3c2)C(=O)N2CCC(C(=O)OCc3ccccc3)CC2)c1`, the inhibition constant Ki stood at 3900 nM.
In the case of `CC(C)NC(=O)C1CCN(C(=O)C(Cc2cccc(C(=N)N)c2)NS(=O)(=O)c2c(C(C)C)cc(C(C)C)cc2C(C)C)CC1` (centres unmarked), the affinity, expressed as Ki, was 4200 nM.
For the compound `CNC(=O)C1CCN(C(=O)C(Cc2cccc(C(=N)N)c2)NS(=O)(=O)c2c(C(C)C)cc(C(C)C)cc2C(C)C)CC1` (centres unmarked), the Ki worked out at 4400 nM.
The same measure for `CCOC(=O)N1CCN(C(=O)[C@H](Cc2cccc(C(=N)N)c2)NS(=O)(=O)c2c(C(C)C)cc(C(C)C)cc2C(C)C)CC1` [N-α-2,4,6-Triisopropylphenylsulfonyl-(L)-3-amidinophenylalanine-4-ethoxycarbonyl-piperazide hydrochloride]: 490 nM.

By Ki is commonly meant the equilibrium dissociation constant of an inhibitor or competing ligand from its target. Read a low Ki as a stronger hold on the target.

The values above are taken from patent publication US7745441B1, “Urokinase inhibitors” (Wilex AG, priority 1998, dated 2010).
